We go through 1 compound from BindingDB's records for doi:10.1021/jm000320t (Gsk, 2001).

Each structure is given as a SMILES string.

Common to all, as to assay: In Vitro Enzyme Inhibition Assay
The target in one assay is T1, Cathepsin K (Homo sapiens, UniProt P43235).
T1 sequence (P43235 whole entry): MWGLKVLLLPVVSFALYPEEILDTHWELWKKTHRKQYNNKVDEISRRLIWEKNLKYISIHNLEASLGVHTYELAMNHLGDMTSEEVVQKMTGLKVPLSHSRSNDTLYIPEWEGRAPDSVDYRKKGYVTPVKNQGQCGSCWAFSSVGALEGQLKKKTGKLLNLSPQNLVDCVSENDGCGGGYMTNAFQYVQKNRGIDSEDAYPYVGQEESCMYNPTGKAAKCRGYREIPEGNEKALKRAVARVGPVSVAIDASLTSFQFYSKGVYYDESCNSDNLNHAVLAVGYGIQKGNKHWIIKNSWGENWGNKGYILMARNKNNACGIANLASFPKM
Particulars: pH 5.5; 22 °C. The procedure:
(§1) Assays were carried out in the presence of variable concentrations of test compound. Reactions were initiated by addition of enzyme to buffered solutions of inhibitor and substrate. Product fluorescence (excitation at 360 nm, emission at 460 nm) was monitored with a fluorescent plate reader.

Another assay addresses Cathepsin S (Homo sapiens, UniProt P25774). The procedure: as §1
The target in a further assay is Procathepsin L (Homo sapiens, UniProt P07711). The procedure:
as §1

Cathepsin S, sequence (P25774 whole entry): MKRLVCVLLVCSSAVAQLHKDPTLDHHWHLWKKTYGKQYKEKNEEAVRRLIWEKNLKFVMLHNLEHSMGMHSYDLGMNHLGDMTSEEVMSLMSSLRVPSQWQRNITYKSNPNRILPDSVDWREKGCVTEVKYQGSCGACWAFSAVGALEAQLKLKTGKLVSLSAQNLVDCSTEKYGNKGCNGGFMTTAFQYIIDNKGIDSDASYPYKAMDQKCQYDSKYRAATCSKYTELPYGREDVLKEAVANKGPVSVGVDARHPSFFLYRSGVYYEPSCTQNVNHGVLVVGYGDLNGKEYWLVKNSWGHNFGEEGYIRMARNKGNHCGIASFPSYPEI
Procathepsin L, sequence (P07711 whole entry): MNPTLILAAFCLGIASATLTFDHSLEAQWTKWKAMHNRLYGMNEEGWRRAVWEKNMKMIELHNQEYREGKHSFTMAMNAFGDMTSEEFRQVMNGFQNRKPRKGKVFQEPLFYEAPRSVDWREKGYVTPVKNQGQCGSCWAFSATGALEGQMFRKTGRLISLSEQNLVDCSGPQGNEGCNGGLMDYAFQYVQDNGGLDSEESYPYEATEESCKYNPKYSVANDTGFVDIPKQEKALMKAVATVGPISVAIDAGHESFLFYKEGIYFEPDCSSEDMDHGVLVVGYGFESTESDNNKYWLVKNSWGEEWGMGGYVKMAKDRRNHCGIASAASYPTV

As to `CN[C@@H](CC(C)C)C(=O)N1CC(=O)C(NC(=O)[C@H](CC(C)C)NC(=O)OCc2ccccc2)C1` (stereo partly drawn) [[(2S)-1-{3-[(2S)-2-{[(benzyloxy)carbonyl]amino}-4-methylpentanamido]-4-oxopyrrolidin-1-yl}-4-methyl-1-oxopentan-2-yl](methyl)azanium chloride], the Ki at Cathepsin K came out at 77 nM; at Cathepsin S it was 290 nM; on Procathepsin L, 400 nM.
